Reference: ChEMBL document CHEMBL3259815, “Regioselective synthesis of polycyclic aza-oxa and aza-oxa-thia heteroarenes as Colo-205 and HepG2 carcinoma cells growth inhibitors” (Eur J Med Chem, 2014)
pIC50: −log10 of the molar value. In brackets after ≈: the same amount, converted by molar mass. Activity calls are given as the source filed them. No cut-off for these calls is given here.

Legend:
[1] = system: COLO 205; assay: Induction of apoptosis in human COLO205 cells assessed as increase of Bax protein expression at IC50 after 48 hrs by Western blotting; format: functional, cell-based
[2] = system: COLO 205; assay: Induction of apoptosis in human COLO205 cells assessed as cleaved procaspase-3 level at IC50 after 48 hrs by Western blotting; format: functional, cell-based
[3] = system: COLO 205; assay: Induction of apoptosis in human COLO205 cells assessed as activation of caspase-8 at IC50 after 48 hrs by Western blotting; format: functional, cell-based
[4] = system: COLO 205; assay: Induction of apoptosis in human COLO205 cells assessed as decrease of Bcl2 protein expression at IC50 after 48 hrs by Western blotting; format: functional, cell-based
[5] = system: COLO 205; assay: Induction of apoptosis in human COLO205 cells assessed as increase of p53 protein expression at IC50 after 48 hrs by Western blotting; format: functional, cell-based
[6] = system: COLO 205; assay: Cytotoxicity against human COLO205 cells after 48 hrs by MTT assay; format: functional, cell-based; settings: for pIC50: COLO 205, 48 h
[7] = system: COLO 205; assay: Induction of apoptosis in human COLO205 cells assessed as increase of cytochrome-c relase at IC50 after 48 hrs by Western blotting; format: functional, cell-based
[8] = Cytotoxicity against rat IEC-6 cells assessed as cell viability up to 100 uM after 24 to 48 hrs by MTT assay; format: cell-based
[9] = system: COLO 205; assay: Induction of apoptosis in human COLO205 cells assessed as viable cells at IC50 after 48 hrs using Annexin-V-FITC staining by flow cytometer analysis (reference value: 65.8%); format: functional
[10] = system: COLO 205; assay: Induction of apoptosis in human COLO205 cells assessed as activation of caspase-9 at IC50 after 48 hrs by Western blotting; format: functional, cell-based
[11] = system: COLO 205; assay: Induction of apoptosis in human COLO205 cells assessed as cleaved PARP level at IC50 after 48 hrs by Western blotting; format: functional, cell-based
[12] = system: HepG2; assay: Cytotoxicity against human HepG2 cells up to 100 uM after 24 to 48 hrs by MTT assay; format: functional, cell-based
[13] = system: COLO 205; assay: Induction of apoptosis in human COLO205 cells assessed as late apoptotic cells at IC50 after 24 hrs using Annexin-V-FITC staining by flow cytometer analysis (reference value: 0.07%); format: functional
[14] = system: COLO 205; assay: Induction of apoptosis in human COLO205 cells assessed as necrotic cells at IC50 after 48 hrs using Annexin-V-FITC staining by flow cytometer analysis (reference value: 0.5%); format: functional
[15] = system: COLO 205; assay: Induction of apoptosis in human COLO205 cells assessed as late apoptotic cells at IC50 after 48 hrs using Annexin-V-FITC staining by flow cytometer analysis (reference value: 6.5%); format: functional
[16] = system: COLO 205; assay: Induction of apoptosis in human COLO205 cells assessed as early apoptotic cells at IC50 after 48 hrs using Annexin-V-FITC staining by flow cytometer analysis (reference value: 0.3%); format: functional
[17] = system: COLO 205; assay: Induction of apoptosis in human COLO205 cells assessed as viable cells at IC50 after 24 hrs using Annexin-V-FITC staining by flow cytometer analysis (reference value: 75.5%); format: functional
[18] = system: COLO 205; assay: Induction of apoptosis in human COLO205 cells assessed as necrotic cells at IC50 after 24 hrs using Annexin-V-FITC staining by flow cytometer analysis relative to control; format: functional
[19] = system: COLO 205; assay: Induction of apoptosis in human COLO205 cells assessed as increase of p21 protein expression at IC50 after 48 hrs by Western blotting; format: functional, cell-based
[20] = system: COLO 205; assay: Induction of apoptosis in human COLO205 cells assessed as early apoptotic cells at IC50 after 24 hrs using Annexin-V-FITC staining by flow cytometer analysis (reference value: 0.07%); format: functional
[21] = system: COLO 205; assay: Cytotoxicity against human COLO205 cells after 24 hrs by MTT assay; format: functional, cell-based
[22] = system: HepG2; assay: Cytotoxicity against human HepG2 cells after 48 hrs by MTT assay; format: functional, cell-based; settings: HepG2, 48 h
[23] = system: HepG2; assay: Induction of apoptosis in human HepG2 cells assessed as increase of cleaved caspase 3/9 level at IC50 after 48 hrs by Western blotting; format: functional, cell-based
[24] = system: HepG2; assay: Induction of apoptosis in human HepG2 cells assessed as increase of cytochrome-c relase at IC50 after 48 hrs by Western blotting; format: functional, cell-based
[25] = system: HepG2; assay: Induction of apoptosis in human HepG2 cells assessed as early apoptotic cells at IC50 after 48 hrs using Annexin-V-FITC staining by flow cytometer analysis (reference value: 0.6%); format: functional
[26] = system: HepG2; assay: Induction of apoptosis in human HepG2 cells assessed as late apoptotic cells at IC50 after 48 hrs using Annexin-V-FITC staining by flow cytometer analysis (reference value: 0.5%); format: functional
[27] = system: HepG2; assay: Induction of apoptosis in human HepG2 cells assessed as necrotic cells at IC50 after 48 hrs using Annexin-V-FITC staining by flow cytometer analysis (reference value: 1.5%); format: functional
[28] = system: HepG2; assay: Induction of apoptosis in human HepG2 cells assessed as increase of p53 and p21 protein expression at IC50 after 48 hrs by Western blotting; format: functional, cell-based
[29] = system: HepG2; assay: Induction of apoptosis in human HepG2 cells assessed as viable cells at IC50 after 48 hrs using Annexin-V-FITC staining by flow cytometer analysis (reference value: 97.3%); format: functional
[30] = system: HepG2; assay: Induction of apoptosis in human HepG2 cells assessed as increase of cleaved PARP level at IC50 after 48 hrs by Western blotting; format: functional, cell-based
[31] = system: HepG2; assay: Induction of apoptosis in human HepG2 cells assessed as decrease of Bcl2 protein expression at IC50 after 48 hrs by Western blotting; format: functional, cell-based
[32] = system: HepG2; assay: Induction of apoptosis in human HepG2 cells assessed as increase of Bax protein expression at IC50 after 48 hrs by Western blotting; format: functional, cell-based
[33] = system: HepG2; assay: Cytotoxicity against human HepG2 cells after 24 to 48 hrs by MTT assay; format: functional, cell-based
[34] = system: HeLa; assay: Cytotoxicity against human HeLa cells; format: functional
[35] = system: HepG2; assay: Cytotoxicity against human HepG2 cells; format: functional

Compound	Activity [1]	Activity [2]	Activity [3]	Activity [4]	Activity [5]	Activity [6]	pIC50 [6]	Activity [7]	Activity [8]	Activity [9]	Activity [10]	Activity [11]	Activity [12]	Activity [13]	Activity [14]	Activity [15]	Activity [16]	Activity [17]	Activity [18]	Activity [19]	also measured
Cc1cc2c(cc1C)-c1oc(=O)c3c(N)n[nH]c3c1CCO2	Active	Active	inactive	Active	inactive	Dose-dependent effect	4.22	Active	Non-toxic	63.5%	Active	Active	inactive	4.3%	7.5%	4%	0.1%	50.6%	0.7%	Active	Activity [20]: 9.4%; Activity [21]: inactive
Nc1n[nH]c2c1C(=O)NN=C1c3cc(Cl)ccc3SCC12 (centres undefined)	–	–	–	–	–	–	–	–	Non-toxic	–	–	–	inactive	–	–	–	–	–	–	–	–
Nc1n[nH]c2c1C(=O)NN=C1c3ccccc3OCCC12 (centres undefined)	–	–	–	–	–	–	–	–	Non-toxic	–	–	–	–	–	–	–	–	–	–	–	pIC50 [22]: 4.22; Activity [23]: Active; Activity [24]: Active; Activity [25]: 11.2%; Activity [26]: 7.6%; Activity [27]: 6.7%; Activity [28]: Active; Activity [29]: 74.5%; Activity [30]: Active; Activity [31]: Active; Activity [32]: Active; Activity [33]: Dose-dependent effect
CC(=O)c1c(O)c2ccc3ccccc3c2oc1=O	–	–	–	–	–	–	–	–	–	–	–	–	–	–	–	–	–	–	–	–	CC50 [34]: 6.87 µg/mL (≈ 27 µM); CC50 [35]: 6.87 µg/mL (≈ 27 µM)
Nc1n[nH]c2c3c(oc(=O)c12)-c1ccc2ccccc2c1OCC3	Active	Active	inactive	Active	inactive	Dose-dependent effect	4.70	Active	Non-toxic	50.7%	Active	Active	–	7.5%	7%	8.6%	0.2%	54.7%	1.7%	Active	Activity [20]: 5.5%; Activity [21]: inactive
Nc1n[nH]c2c3c(oc(=O)c12)-c1ccccc1OCC3	–	–	–	–	–	–	–	–	Non-toxic	–	–	–	–	–	–	–	–	–	–	–	pIC50 [22]: 4.10; Activity [23]: Active; Activity [24]: Active; Activity [25]: 15.8%; Activity [26]: 9.2%; Activity [27]: 4.6%; Activity [28]: Active; Activity [29]: 70.4%; Activity [30]: Active; Activity [31]: Active; Activity [32]: Active; Activity [33]: Dose-dependent effect
COc1ccc2c(c1)-c1oc(=O)c3c(N)n[nH]c3c1CCO2	Active	Active	inactive	Active	inactive	Dose-dependent effect	4.40	Active	Non-toxic	49.3%	Active	Active	inactive	9%	3%	7.7%	0.3%	33.6%	0.2%	Active	Activity [20]: 16.7%; Activity [21]: inactive
Nc1n[nH]c2c3c(oc(=O)c12)-c1cc(Cl)ccc1SC3	–	–	–	–	–	–	–	–	Non-toxic	–	–	–	inactive	–	–	–	–	–	–	–	–
Nc1n[nH]c2c3c(oc(=O)c12)-c1ccccc1SC3	–	–	–	–	–	–	–	–	Non-toxic	–	–	–	inactive	–	–	–	–	–	–	–	–
